SMILES strings stand for the structures.

From ChEMBL document CHEMBL1150183, “Spermine alkaloids from Schweinfurthia papilionacea” (J Nat Prod, 1990) come the findings set out here.

What all share (assay type): toxicity, organism-based
For series [1], the system named is Salmonella typhimurium. Put plainly: Mutagenic activity in Salmonella Typhimurium TA100 assessed as number of spontaneous revertants at 500 ug/plate by Ames test in presence of rat liver microsomal S9 fraction. The settings on record: salmonella enterica subsp. enterica serovar typhimurium, microsomes.
In series [2] the test system is Salmonella typhimurium. Nature of the series: Mutagenic activity in Salmonella Typhimurium TA100 assessed as increase in spontaneous revertants by Ames test relative to control spontaneous reversion. The settings on record: salmonella enterica subsp. enterica serovar typhimurium.
Series [3] concerns Salmonella typhimurium. Nature of the series: Mutagenic activity in Salmonella Typhimurium TA98 assessed as number of spontaneous revertants at 500 ug/plate by Ames test in absence of rat liver microsomal S9 fraction. Conditions: salmonella enterica subsp. enterica serovar typhimurium.
Series [4] has as its system Salmonella typhimurium. Nature of the series: Mutagenic activity in Salmonella Typhimurium TA100 assessed as number of spontaneous revertants at 500 ug/plate by Ames test in absence of rat liver microsomal S9 fraction. The settings on record: salmonella enterica subsp. enterica serovar typhimurium.
For series [5], the system named is Salmonella typhimurium. Put plainly: Mutagenic activity in Salmonella Typhimurium TA98 assessed as increase in spontaneous revertants by Ames test relative to control spontaneous reversion. The settings on record: salmonella enterica subsp. enterica serovar typhimurium.
In series [6] the test system is Salmonella typhimurium. Put plainly: Mutagenic activity in Salmonella Typhimurium TA98 assessed as number of spontaneous revertants at 500 ug/plate by Ames test in presence of rat liver microsomal S9 fraction. Conditions: salmonella enterica subsp. enterica serovar typhimurium, microsomes.
Series [7] has as its system Salmonella typhimurium. Put plainly: Mutagenic activity in Salmonella Typhimurium TA97a assessed as number of spontaneous revertants at 500 ug/plate by Ames test in absence of rat liver microsomal S9 fraction. Conditions: salmonella enterica subsp. enterica serovar typhimurium.

Regarding `O=C1C[C@H]2NCCCNCCCCN(CCCN1)C(=O)[C@@H]1c3cc2ccc3O[C@H]1c1ccc(O)cc1`, the Activity in series [1] came out at 461; in series [3], 81; in series [4] it was 143; in series [6] it was 778; in series [7] it was 0. In addition, the “fold change (FC)” value in series [2] was 4; in series [5], 22.
